# Test results published in US9138495B2, “Conjugates and their uses in molecular imaging” (King's College London, priority 2010, dated 2015).
# Assays:
# serum transferrin = target: T1, serum transferrin (Homo sapiens, UniProt P02787); test: Labelling of CP256 with ^68Ga in serum (PD10, ethanol precipitation, ITLC); format: in vitro ADME
# T1 construct: from tissue; host or cells: human blood serum
# Experimental: Two different radiolabelling techniques were used. In method 1, 100 μl of chelator (CP-256, 2.35 mM, 1.17 mM, 589 μM, 117 μM, 23 μM and 11.7 μM; pH 7-7.5 in PBS/bicarbonate buffer) was mixed with 300 μl of human serum. After 10-15 minutes 20 μl of 68Ga eluate was added and the solution incubated at 37° C. in a plastic tube. In the second method, 20 μl of ^68Ga solution was added to the 300 μl of human blood serum. After 15-20 minutes 100 μl of chelator (Cp-256) was added. At each time point 50 μl of the incubation solution was applied to the top of the PD-10 column and eluted the column with PBS collecting 0.5 ml fractions. Fractions were counted in a gamma counter (Perkin Elmer wizard 31480 automatic gamma counter, 10 seconds per sample). The incubated solution were also analysed by ethanol precipitation, counting the pellet and supernatant after centrifugation to determine protein bound ^68Ga, and the centrifuged supernatants were analysed by ITLC-SG with 0.1 M sodium citrate as mobile phase. In these conditions “free” ^68Ga migrates with the solvent front (Rf=1) and ^68Ga-CP256 remains at the origin (Rf=0).
# human apo-transferrin = target: T2, human apo-transferrin (Homo sapiens, UniProt P02787); test: Tracer stability in apo-transferrin using 30 kDa MWCO filters; format: in vitro ADME; details: tracer radiolabelled at 100 μM ligand, 37° C.
# T2 construct: purchased Sigma Aldrich T5391-10MG
# T2 sequence (P02787 20-698): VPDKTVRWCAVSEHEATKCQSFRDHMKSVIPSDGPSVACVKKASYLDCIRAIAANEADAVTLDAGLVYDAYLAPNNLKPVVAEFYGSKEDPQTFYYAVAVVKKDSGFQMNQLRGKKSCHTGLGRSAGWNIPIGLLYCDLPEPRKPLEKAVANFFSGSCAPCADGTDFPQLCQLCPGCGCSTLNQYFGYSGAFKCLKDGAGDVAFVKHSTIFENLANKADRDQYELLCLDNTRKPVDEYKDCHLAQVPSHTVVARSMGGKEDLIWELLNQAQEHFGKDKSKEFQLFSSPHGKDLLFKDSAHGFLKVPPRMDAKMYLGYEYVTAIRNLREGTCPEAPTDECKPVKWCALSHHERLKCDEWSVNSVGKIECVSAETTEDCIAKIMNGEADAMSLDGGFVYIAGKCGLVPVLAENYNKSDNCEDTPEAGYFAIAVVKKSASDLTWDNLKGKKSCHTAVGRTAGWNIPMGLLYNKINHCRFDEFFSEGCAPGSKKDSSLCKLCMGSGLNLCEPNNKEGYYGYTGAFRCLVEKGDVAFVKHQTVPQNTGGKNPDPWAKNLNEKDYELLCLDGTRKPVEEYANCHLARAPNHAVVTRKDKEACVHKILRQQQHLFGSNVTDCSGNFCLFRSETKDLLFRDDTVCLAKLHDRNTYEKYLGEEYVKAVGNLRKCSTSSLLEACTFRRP
# Experimental: 50 mM TRIS-HCl buffer (pH 7.5) was prepared by dilution of a 1 M stock solution. Sodium bicarbonate was added to a concentration of 25 mM. A 2.5 mg/ml (32 μM) solution of apo-transferrin was prepared in this buffer. Solutions of all tracers were radiolabelled at a concentration of 100 μM. A 10 μM CP256 solution was also prepared. See table 9 for radiolabelling conditions. A 10 μl aliquot of each radiolabelled tracer was added to 30 μl of an appropriate buffer to neutralise the pH to between 7 and 7.5. This buffer was 2 M TRIS-HCl (pH 7.5) in the case of those tracers labelled in the acetate buffer. For preparations of ^67Ga-CP256 and ^67Ga-Citrate the buffer was PBS. Details can be seen in Table 9. Apo-transferrin solution (200 μl) in a plastic microcentrifuge tube was incubated at 37° C. in a metal heating block. To this was added 20 μl of each pH-neutralised tracer. 20 μl of each tracer was also incubated in a reference buffer (containing no apo-transferrin) of 50 mM TRIS-HCl containing 25 mM sodium bicarbonate. […] The filter section of the tube was removed and counted separately from the tube in a gamma counter. Percentage binding of the radioactivity to the MWCO filter was calculated using the following equation: Counts from filter section/Counts from filter section+counts from tube section×100 The analysis was done in triplicate after 4 hours for the apo-transferrin incubations. […]
# sialoadhesin = target: T3, sialoadhesin (Mus musculus, UniProt Q62230); format: in vivo; details: group 2: ^67Ga citrate 5 min after unconjugated SER4; wild type mice, 3 h
# T3 construct: Sialoadhesin is found on the surface of macrophages; endogenous in cells; host or cells: macrophages (spleen, liver) of living wild-type C57Bl/6 mice
# T3 sequence (Q62230 20-1695): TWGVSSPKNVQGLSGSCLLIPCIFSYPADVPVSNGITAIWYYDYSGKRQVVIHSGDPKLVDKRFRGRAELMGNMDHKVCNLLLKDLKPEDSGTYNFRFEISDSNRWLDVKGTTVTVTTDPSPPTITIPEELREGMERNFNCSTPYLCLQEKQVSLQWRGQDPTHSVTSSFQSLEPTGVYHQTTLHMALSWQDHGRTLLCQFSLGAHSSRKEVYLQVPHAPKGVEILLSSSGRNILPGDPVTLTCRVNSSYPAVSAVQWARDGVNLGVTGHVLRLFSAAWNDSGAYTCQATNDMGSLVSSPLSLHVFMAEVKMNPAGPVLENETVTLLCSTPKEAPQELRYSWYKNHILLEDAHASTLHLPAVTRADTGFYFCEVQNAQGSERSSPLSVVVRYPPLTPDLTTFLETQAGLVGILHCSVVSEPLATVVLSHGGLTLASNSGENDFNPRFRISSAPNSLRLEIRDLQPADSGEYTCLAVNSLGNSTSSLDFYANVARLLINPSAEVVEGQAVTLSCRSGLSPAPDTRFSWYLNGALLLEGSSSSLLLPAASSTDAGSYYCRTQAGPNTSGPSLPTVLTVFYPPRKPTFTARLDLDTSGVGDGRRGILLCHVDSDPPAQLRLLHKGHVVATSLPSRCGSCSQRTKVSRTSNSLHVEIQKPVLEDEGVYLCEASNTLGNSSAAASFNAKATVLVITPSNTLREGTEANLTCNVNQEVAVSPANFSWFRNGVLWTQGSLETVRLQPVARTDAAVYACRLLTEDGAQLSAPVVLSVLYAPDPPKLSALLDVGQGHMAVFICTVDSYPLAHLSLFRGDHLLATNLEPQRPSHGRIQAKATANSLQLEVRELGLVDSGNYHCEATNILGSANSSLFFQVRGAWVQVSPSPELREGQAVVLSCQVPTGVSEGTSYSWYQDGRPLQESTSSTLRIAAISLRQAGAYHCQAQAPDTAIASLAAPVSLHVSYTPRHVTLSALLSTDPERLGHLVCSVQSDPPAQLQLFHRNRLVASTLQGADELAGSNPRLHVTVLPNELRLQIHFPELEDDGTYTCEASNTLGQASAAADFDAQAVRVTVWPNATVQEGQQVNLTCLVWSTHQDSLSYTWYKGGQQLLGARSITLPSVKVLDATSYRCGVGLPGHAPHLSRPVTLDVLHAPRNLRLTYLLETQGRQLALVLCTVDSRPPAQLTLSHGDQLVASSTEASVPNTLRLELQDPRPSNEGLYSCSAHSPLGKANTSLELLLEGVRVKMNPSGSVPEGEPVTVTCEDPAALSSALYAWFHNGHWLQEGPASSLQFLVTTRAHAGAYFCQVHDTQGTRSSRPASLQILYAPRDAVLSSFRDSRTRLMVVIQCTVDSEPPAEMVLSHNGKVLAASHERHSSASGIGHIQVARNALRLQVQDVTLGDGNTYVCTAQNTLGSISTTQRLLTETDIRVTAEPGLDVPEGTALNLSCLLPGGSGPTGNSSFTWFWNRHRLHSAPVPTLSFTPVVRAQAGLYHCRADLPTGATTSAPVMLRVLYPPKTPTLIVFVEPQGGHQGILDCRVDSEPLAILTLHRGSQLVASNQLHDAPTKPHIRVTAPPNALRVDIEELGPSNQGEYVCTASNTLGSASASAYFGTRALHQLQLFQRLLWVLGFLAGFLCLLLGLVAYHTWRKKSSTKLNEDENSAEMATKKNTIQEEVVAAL
# Experimental: CP256-SER4 was labelled with ^67Ga to give ^67Ga-CP256-SER4. Groups of wild type mice were injected with either directly labelled Ga-CP256-SER4 (group 1), or SER4 (unconjugated) followed 5 min later by ^67Ga citrate (group 2) or CP256-SER4 followed by ^67Ga citrate.
# The same experiments were also performed using sialoadhesin knockout mice. All animals were killed after 3 h and biodistribution of radioactivity determined.
# ^67Gallium radiolabelling was performed by addition of 45 μL ^67Ga citrate (0.6-0.75 MBq) to 90 μL (90 μg) CP256-SER4. Radiolabelling was allowed to proceed for 10 min before dilution to 350 μL with phosphate buffered saline. Injections containing 25 μg of labelled antibody were drawn up. Analysis of the radiolabelled antibody was performed by size exclusion HPLC using 0.1 M phosphate buffer containing 2 mM EDTA as the mobile phase to ensure good radiolabelling had been achieved prior to injection into animals.
# Groups of wild type mice (C57Bl/6, male 8-10 weeks, n=2 to 3 per group) were injected with either directly labelled ^67Ga-CP256-SER4 (group 1), or SER4 (unconjugated) followed 5 min later by ^67Ga citrate (group 2) or CP256-SER4 followed by ^67Ga citrate. […] All animals were killed after 3 h and biodistribution of radioactivity determined by explanting tissues and weighing and counting.
# T1 sequence (P02787 20-698): as the sequence (P02787 20-698) above
CP256 sample concentration giving a chromatogram similar to that of ^68Ga-CP256 in serum (serum transferrin; ^68Ga chloride added to mixture of CP256 and human serum) [µM],free ^68Ga (ITLC of supernatants) (serum transferrin; serum containing CP256),protein bound ^68Ga (ethanol precipitation) (serum transferrin; serum containing CP256),"% radioactivity bound to MWCO filter, in reference buffer (human apo-transferrin; 50 mM TRIS-HCl, 25 mM bicarbonate, no apo-transferrin) [%]","% radioactivity bound to MWCO filter, apo-transferrin incubation, after 4 hours (human apo-transferrin; apo-transferrin, 4 hours) [%]",activity in circulating blood (sialoadhesin) [% ID/g],Compound,"chelation of ^68Ga in competition with serum transferrin (serum transferrin; ^68Ga chloride added to mixture of CP256 and human serum, 37° C.)","extraction of ^68Ga from ^68Ga-transferrin complex (serum transferrin; ^68Ga equilibrated first with serum, then CP256 added)"
≥ 23,no detectable free ^68Ga,no measurable protein binding,,,,"CC(=O)NC(CCC(=O)NCc1c(O)c(=O)cc(C)n1C)(CCC(=O)NCc1c(O)c(=O)cc(C)n1C)CCC(=O)NCc1c(O)c(=O)cc(C)n1C.Cl.Cl.Cl [CP256, 4-Acetylamino-4-{2-[(3-hydroxy-1,6-dimethyl-4-oxo-1,4-dihydro-pyridin-2-ylmethyl)-carbamoyl]-ethyl}-heptanedioic acid bis-[(3-hydroxy-1,6-dimethyl-4-oxo-1,4-dihydro-pyridin-2-ylmethyl)-amide]tris hydrochloride salt]",competes effectively with serum transferrin,able to extract ^68Ga from ^68Ga-transferrin complex
,,,1.7 ± 0.5,73.0 ± 4.1,7,O=C([O-])CC(O)(CC(=O)[O-])C(=O)[O-].[67Ga+3] [^67Ga-CITRATE],,
